Consider two molecules from ChEMBL document CHEMBL5352424, “Boosting caffeic acid performance as antioxidant and monoamine oxidase B/catechol-O-methyltransferase inhibitor” (Eur J Med Chem, 2022).

Active and inactive are the calls of the source. The rule behind the calls is not given here.

Data set [1] relates to SH-SY5Y. Briefly: Cytoprotective activity against t-BHP induced oxidative stress in retinoic acid and TPA-differentiated human SH-SY5Y cells assessed as increase in resorufin fluorescence at 10 uM pretreated for 30 mins followed by t-BHP stimulation and measured after 24 hrs by resazurin dye based analysis. The conditions noted are these: time 24.5 hrs. The class given is functional, cell-based.

Data set [2] concerns the target T1, Amine oxidase [flavin-containing] B (Homo sapiens, UniProt P27338).
T1 sequence (P27338 whole entry): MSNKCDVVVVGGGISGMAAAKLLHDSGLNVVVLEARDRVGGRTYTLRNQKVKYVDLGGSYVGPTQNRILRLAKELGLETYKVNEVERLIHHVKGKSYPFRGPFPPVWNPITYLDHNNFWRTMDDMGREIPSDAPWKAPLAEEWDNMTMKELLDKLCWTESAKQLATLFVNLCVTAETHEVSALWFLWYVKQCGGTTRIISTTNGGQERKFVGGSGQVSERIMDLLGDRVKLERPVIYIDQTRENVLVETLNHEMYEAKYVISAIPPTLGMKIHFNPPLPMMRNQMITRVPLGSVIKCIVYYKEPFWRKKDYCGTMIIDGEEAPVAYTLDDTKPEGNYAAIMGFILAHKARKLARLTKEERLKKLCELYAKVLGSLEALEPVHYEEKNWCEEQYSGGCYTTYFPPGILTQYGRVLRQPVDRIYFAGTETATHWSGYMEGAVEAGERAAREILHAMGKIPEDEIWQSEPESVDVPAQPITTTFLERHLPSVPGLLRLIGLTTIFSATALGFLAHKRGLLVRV
Briefly: Inhibition of human MAO-B using kynuramine as substrate incubated for 30 mins by spectrophotometry analysis.

Data set [3] deals with T2, Catechol O-methyltransferase (Rattus norvegicus, UniProt P22734).
T2 sequence (P22734 whole entry): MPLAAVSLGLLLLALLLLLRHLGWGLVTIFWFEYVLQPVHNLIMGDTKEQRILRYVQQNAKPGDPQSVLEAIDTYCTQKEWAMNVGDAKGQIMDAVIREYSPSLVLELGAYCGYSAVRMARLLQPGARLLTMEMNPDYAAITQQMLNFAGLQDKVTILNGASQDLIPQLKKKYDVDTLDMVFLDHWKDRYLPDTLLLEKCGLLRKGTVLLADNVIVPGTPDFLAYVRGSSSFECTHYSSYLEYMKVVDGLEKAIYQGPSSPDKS
Briefly: Inhibition of MB-COMT in rat liver homogenates using adrenaline as substrate and SAM as cofactor preincubated for 20 mins followed by substrate addition and measured after 5 mins. The class given is tissue-based.

A short description of data set [4]: Antioxidant activity assessed as ORAC-FL index. The class given is functional.
The test system of another data set is SK-N-SH. Briefly: Cytotoxicity against human SK-N-SH cells assessed as reduction in calcein fluorescence at 30 to 50 uM by calcein-AM assay. The class given is toxicity, cell-based. The conditions noted are these: dose 30-50 µM.
Data set [5] in a line: Oxidation potential of compound at pH 7.3 by differential pulse voltammetry analysis. The class given is physicochemical.
The species entered for the next data set is Rattus norvegicus. Description: Selectivity index, ratio of IC50 for S-COMT in rat liver homogenates to IC50 for MB-COMT in rat brain homogenates. The class given is tissue-based.
The species named for a further data set is Homo sapiens. Description: Selectivity index, ratio of IC50 for human MAO-A to IC50 for human MAO-B.
In data set [6] the test system is SH-SY5Y. Briefly: Cytotoxicity against retinoic acid and TPA-differentiated human SH-SY5Y cells assessed as reduction in lysosomal activity by measuring neutral red dye internalization at 10 to 50 uM incubated for 24 hrs by neutral red dye based assay. The conditions noted are these: dose 10-50 µM. The class given is toxicity, cell-based.
Data set [7] can be described thus: Retention time of compound at pH 2.6 by LC/UV analysis. The class given is physicochemical. The conditions noted are these: buffer.
The target of data set [8] is T2, Catechol O-methyltransferase. Briefly: Inhibition of MB-COMT in rat brain homogenates using adrenaline as substrate and SAM as cofactor preincubated for 20 mins followed by substrate addition and measured after 5 mins. The class given is tissue-based.
A short description of data set [9]: Chromatographic hydrophobicity index of compound at pH 2.6 by HPLC analysis. The class given is physicochemical.
For data set [10], the target named is T3, Amine oxidase [flavin-containing] A (Homo sapiens, UniProt P21397).
T3 sequence (P21397 whole entry): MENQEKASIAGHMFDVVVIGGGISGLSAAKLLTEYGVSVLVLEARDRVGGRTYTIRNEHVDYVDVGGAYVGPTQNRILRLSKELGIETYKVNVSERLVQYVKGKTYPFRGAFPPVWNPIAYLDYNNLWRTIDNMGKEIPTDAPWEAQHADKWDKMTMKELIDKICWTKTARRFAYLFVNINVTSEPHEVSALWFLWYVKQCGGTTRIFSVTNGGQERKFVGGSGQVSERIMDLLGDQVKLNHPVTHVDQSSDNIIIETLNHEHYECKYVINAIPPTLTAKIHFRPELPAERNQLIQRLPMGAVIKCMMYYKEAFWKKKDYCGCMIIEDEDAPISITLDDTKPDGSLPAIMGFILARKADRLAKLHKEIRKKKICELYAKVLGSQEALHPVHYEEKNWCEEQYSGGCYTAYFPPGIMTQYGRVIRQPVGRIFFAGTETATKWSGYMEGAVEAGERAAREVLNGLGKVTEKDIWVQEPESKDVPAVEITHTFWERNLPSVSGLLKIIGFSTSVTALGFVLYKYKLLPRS
Briefly: Inhibition of human MAO-A using kynuramine as substrate at 10 uM incubated for 30 mins by spectrophotometry analysis relative to control. The conditions noted are these: 0.5 h.

Data set [11] addresses T4, Catechol O-methyltransferase (Rattus norvegicus) (UniProt P22734).
T4 sequence (whole entry): T2 sequence (P22734 whole entry)
Briefly: Inhibition of S-COMT in rat liver homogenates using adrenaline as substrate and SAM as cofactor at 30 uM preincubated for 20 mins followed by substrate addition and measured after 5 mins relative to control. The class given is tissue-based. The conditions noted are these: time 25.0 min.

Data set [12] has as its system SH-SY5Y. Briefly: Cytotoxicity against retinoic acid and TPA-differentiated human SH-SY5Y cells assessed as reduction in metabolic activity by measuring resazurin reduction at 10 uM incubated for 24 hrs by resazurin dye based assay relative to control. Details: scale not given: the % may be the effect or the level left. The class given is toxicity, cell-based. For orientation: Resazurin is reduced to fluorescent resorufin, in cell work by metabolically active cells.

Data set [13] concerns SH-SY5Y. Description: Cytotoxicity against retinoic acid and TPA-differentiated human SH-SY5Y cells upto 50 uM incubated for 24 hrs by neutral red dye based assay. The class given is toxicity, cell-based.
For data set [14], the system named is SH-SY5Y. Briefly: Cytotoxicity against retinoic acid and TPA-differentiated human SH-SY5Y cells upto 50 uM incubated for 24 hrs by resazurin dye based assay. The class given is toxicity, cell-based.

As to `N#C/C(=C\C=C\c1ccc(O)c(O)c1)C(=O)N1CCCCC1`, in the data set with SH-SY5Y [1], the outcome was Active. For the same molecule, the results for the IC50 in data set [2], in [3] and in data set [8] were 4270 nM, 2690 nM and 1330 nM, respectively. The Activity index in data set [4] is 3.5. The Activity entry in the data set with SK-N-SH is listed as “Non-Toxic”; in the data set with SH-SY5Y [6], “Non-Toxic”; in the data set on SH-SY5Y [12], above 85%. Also, in data set [5], the Ep stood at 154 mV. Moreover, the Ratio IC50 was above 23 in the data set listed under Rattus norvegicus and above 2.3 in the data set listed under Homo sapiens. For the same molecule, in data set [7], the Retention_time was determined as 10.5 min. For the same molecule, the CHI in data set [9] is 56.03. The molecule further returned an inhibition at 10 µM in [10] below 50%. Moreover, the inhibition in [11] was below 50%.
As for `Cc1ccc(C(=O)c2cc(O)c(O)c([N+](=O)[O-])c2)cc1` [TOLCAPONE], the Activity entry in the data set with SH-SY5Y [13], with SK-N-SH and in the data set on SH-SY5Y [14] was “Non-Toxic” in each case.

A word on the IC50: it is the concentration needed to halve the response being measured. As usually defined, the inhibition is the percentage by which the read-out fell short of the control.
